pIC50: −log10 of the molar value.
Molecular target: T1, His-tagged full-length RSK2 (RPS6KA3) (Homo sapiens, UniProt P51812)
T1 construct: His-tagged full-length RSK2 (RPS6KA3, Invitrogen PV3323); His; purchased Invitrogen PV3323
Test: RSK2 Omnia Assay for compound IC50 determination
Assay type: biochemical
Settings: ATP 15 μM, n=2, read-out: Mean RSK2 Biochem IC50
Description: RSK1 & RSK2 Omnia Assay Protocol for Compound IC50 Determination
The Omnia Assay (Invitrogen) has been optimized for His-tagged full length RSK1 (RPS6KA1, Millipore 14-509) and for His-tagged full-length RSK2 (RPS6KA3, Invitrogen PV3323). In this assay system, Omnia ST Peptide 6 (Invitrogen KNZ1061) functions as a substrate for RSK1 or RSK2. Phosphorylation of this SOX-containing peptide results in an increase in fluorescence at 485 nm upon excitation at 360 nm.
Assays are carried out in 384-well OptiPlates (Perkin Elmer 6007290) in a total volume of 20 μL containing RSK1 ([…]) or RSK2 ([…]), Omnia ST Peptide 6 (5 μM), ATP (15 μM, Km=16.3 μM), and test compound (variable) in RSK assay buffer (50 mM HEPES, pH 7.5, 10 mM MgCl2, 0.01% Tween-20, 1% glycerol, 1 mM DTT, 1 mM EGTA, 0.01% BSA) with 1% DMSO.
IC50s for test compounds are typically determined using an 11-point three-fold serial dilution with a final assay concentration ranging either from 170 μM to […] or from 17 μM to […]. All compound concentrations are assayed in duplicate. Initial compound dilutions are prepared at 100× concentration in 100% DMSO from a 10 mM stock solution. Compounds are further diluted 1:25 in assay buffer resulting in a 4× concentrated solution.
To run the assay 5 μL of the above 4× concentrated compound solution (or 4% DMSO for positive controls) is added to the assay plate followed by 5 μL of a solution containing peptide (20 μM) and ATP (60 μM) in assay buffer. The reaction is initiated by the addition of 10 μL of RSK1 ([…]) or RSK2 ([…]) in assay buffer, or assay buffer alone for negative controls. The increase in fluorescence due to peptide phosphorylation is monitored continuously as a function of time using a Spectramax M5 plate reader (Molecular Devices) equipped with SoftMax Pro software.
The slopes from the linear portion of progress curves are used to determine IC50 values by non-linear curve-fitting to a four-parameter equation using GraphPad Prism (GraphPad Software, Inc.) or XLFit (IDBS). IC50's are determined in duplicate (n=2) and Ki values are calculated from IC50 values using the Cheng-Prusoff equation assuming a competitive mode of inhibition.

T1 sequence (P51812 whole entry): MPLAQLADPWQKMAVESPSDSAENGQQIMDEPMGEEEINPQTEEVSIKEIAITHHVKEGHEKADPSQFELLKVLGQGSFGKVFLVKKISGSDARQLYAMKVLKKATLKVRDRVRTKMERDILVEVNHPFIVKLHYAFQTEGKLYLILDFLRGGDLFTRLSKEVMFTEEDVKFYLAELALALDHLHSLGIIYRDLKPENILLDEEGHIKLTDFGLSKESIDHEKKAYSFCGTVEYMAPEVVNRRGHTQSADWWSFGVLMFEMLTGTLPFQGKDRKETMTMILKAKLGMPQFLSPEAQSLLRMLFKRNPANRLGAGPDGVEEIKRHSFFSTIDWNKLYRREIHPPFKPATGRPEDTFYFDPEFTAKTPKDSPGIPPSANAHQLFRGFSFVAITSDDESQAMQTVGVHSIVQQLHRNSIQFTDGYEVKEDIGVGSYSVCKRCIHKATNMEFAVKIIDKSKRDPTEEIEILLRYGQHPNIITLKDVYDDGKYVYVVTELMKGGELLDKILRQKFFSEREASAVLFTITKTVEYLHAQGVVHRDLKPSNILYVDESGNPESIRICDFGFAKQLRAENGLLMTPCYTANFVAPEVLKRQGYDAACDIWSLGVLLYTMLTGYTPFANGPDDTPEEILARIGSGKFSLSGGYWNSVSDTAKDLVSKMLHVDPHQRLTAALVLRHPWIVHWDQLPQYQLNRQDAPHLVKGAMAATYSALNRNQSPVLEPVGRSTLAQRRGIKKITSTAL

Compound	pIC50
CC(C)CCn1c(=O)c(=O)n(-c2ccccc2)c2cnc(Nc3ccc4[nH]ncc4c3)nc21 [Example 305, 2-(1H-indazol-5-ylamino)-8-(3-methylbutyl)-5-phenyl-5,8-dihydropteridine-6,7-dione]	< 6.00
C[C@@H]1C(=O)N(c2cccc(C#N)c2)c2cnc(Nc3ccc4[nH]nc(Cl)c4c3)nc2N1C1CCCCC1 [compound 108, 3-[(7R)-2-[(3-chloro-1H-indazol-5-yl)amino]-8-cyclohexyl-7-methyl-6-oxo-7,8-dihydropteridin-5(6H)-yl]benzonitrile]	≥ 7.00
CC1C(=O)N(c2ccccc2)c2cnc(Nc3ccc4c(c3)CC(=O)N4)nc2N1C1CCCCC1 (stereo not shown) [Example 60, 8-cyclohexyl-7-methyl-2-[(2-oxo-2,3-dihydro-1H-indol-5-yl)amino]-5-phenyl-7,8-dihydropteridin-6(5H)-one]	≥ 7.00
C[C@@H]1C(=O)N(c2ccc(F)c(C#N)c2)c2cnc(Nc3ccc4[nH]ncc4c3)nc2N1C1CCCCC1 [compound 96, 5-[(7R)-8-cyclohexyl-2-(1H-indazol-5-ylamino)-7-methyl-6-oxo-7,8-dihydropteridin-5(6H)-yl]-2-fluorobenzonitrile]	≥ 7.00
CC(C)CCN1c2nc(Nc3ccc(CS(=O)(=O)N(C)C)cc3)ncc2N(c2ccccc2)C(=O)C1C (stereo not shown) [Example 8, N,N-dimethyl-1-(4-{[7-methyl-8-(3-methylbutyl)-6-oxo-5-phenyl-5,6,7,8-tetrahydropteridin-2-yl]amino}phenyl)methanesulfonamide]	< 6.00
CC(C)CCN1c2nc(Nc3ccc4[nH]ncc4c3)ncc2N(c2ccccc2)C(=O)[C@@H]1C [Example 17, (7S)-2-(1H-indazol-5-ylamino)-7-methyl-8-(3-methylbutyl)-5-phenyl-7,8-dihydropteridin-6(5H)-one]	≥ 7.00
N#Cc1cccc(N2C(=O)[C@@H](CF)N(C3CCCC3)c3nc(Nc4cc(F)c5[nH]ncc5c4)ncc32)c1 [Example 221, 3-[(7S)-8-cyclopentyl-2-[(7-fluoro-1H-indazol-5-yl)amino]-7-(fluoromethyl)-6-oxo-7,8-dihydropteridin-5(6H)-yl]benzonitrile]	≥ 7.00
Cc1cc(Nc2ncc3c(n2)N(C2CCCCC2)[C@H](C)C(=O)N3c2cccc(C#N)c2)cc2cn[nH]c12 [Example 59, 3-[(7R)-8-cyclohexyl-7-methyl-2-[(7-methyl-1H-indazol-5-yl)amino]-6-oxo-7,8-dihydropteridin-5(6H)-yl]benzonitrile]	6.00 to 7.00
COc1cc(N2C(=O)[C@@H](C)N(C3CCCCC3)c3nc(Nc4ccc5[nH]ncc5c4)ncc32)ccc1C [compound 125, (7R)-8-cyclohexyl-2-(1H-indazol-5-ylamino)-5-(3-methoxy-4-methylphenyl)-7-methyl-7,8-dihydropteridin-6(5H)-one]	≥ 7.00
Cc1ccc(N2C(=O)[C@@H](C)N(C3CCCCC3)c3nc(Nc4ccc5[nH]ncc5c4)ncc32)cc1 [Example 22, (7R)-8-cyclohexyl-2-(1H-indazol-5-ylamino)-7-methyl-5-(4-methylphenyl)-7,8-dihydropteridin-6(5H)-one]	≥ 7.00
CC(C)CCN1c2nc(Nc3cccc(C(=O)O)c3)ncc2N(c2ccccc2)C(=O)C1C (stereo not shown) [Example 15, 3-{[7-methyl-8-(3-methylbutyl)-6-oxo-5-phenyl-5,6,7,8-tetrahydropteridin-2-yl]amino}benzoic acid]	< 6.00
CC(C)CCN1c2nc(Nc3ccc(C(=O)O)cc3)ncc2N(c2ccccc2)C(=O)C1C (stereo not shown) [Example 14, 4-{[7-methyl-8-(3-methylbutyl)-6-oxo-5-phenyl-5,6,7,8-tetrahydropteridin-2-yl]amino}benzoic acid]	≥ 7.00
C[C@@H]1C(=O)N(c2ccc(F)c(F)c2)c2cnc(Nc3ccc4[nH]ncc4c3)nc2N1C1CCCCC1 [Example 49, (7R)-8-cyclohexyl-5-(3,4-difluorophenyl)-2-(1H-indazol-5-ylamino)-7-methyl-7,8-dihydropteridin-6(5H)-one]	≥ 7.00
COc1c(Nc2ncc3c(n2)N(C2CCCCC2)[C@H](C)C(=O)N3c2cccc(C#N)c2)ccc2[nH]ncc12 [compound 102, 3-[(7R)-8-cyclohexyl-2-[(4-methoxy-1H-indazol-5-yl)amino]-7-methyl-6-oxo-7,8-dihydropteridin-5(6H)-yl]benzonitrile]	6.00 to 7.00
CNC(=O)Cc1ccc(Nc2ncc3c(n2)N(CCC(C)C)C(C)C(=O)N3c2ccccc2)cc1 (stereo not shown) [Example 5, N-methyl-2-(4-{[7-methyl-8-(3-methylbutyl)-6-oxo-5-phenyl-5,6,7,8-tetrahydropteridin-2-yl]amino}phenyl)acetamide]	6.00 to 7.00

Results, then the compound that gave them:

pIC50	Compound
≥ 7.00	C[C@@H]1C(=O)N(c2ccn(C)c(=O)c2)c2cnc(Nc3cc(F)c4[nH]ncc4c3)nc2N1C1CCCCC1 [compound 176, (7R)-8-cyclohexyl-2-[(7-fluoro-1H-indazol-5-yl)amino]-7-methyl-5-(1-methyl-2-oxo-1,2-dihydropyridin-4-yl)-7,8-dihydropteridin-6(5H)-one]
≥ 7.00	CC[C@@H]1C(=O)N(c2ccc(OC)c(F)c2)c2cnc(Nc3cc(F)c4[nH]ncc4c3)nc2N1C1CCCCC1 [compound 294, (7R)-8-cyclohexyl-7-ethyl-2-[(7-fluoro-1H-indazol-5-yl)amino]-5-(3-fluoro-4-methoxyphenyl)-7,8-dihydropteridin-6(5H)-one]
≥ 7.00	CC[C@@H]1C(=O)N(c2ccc(N(C)C)nc2)c2cnc(Nc3cc(F)c4[nH]ncc4c3)nc2N1C1CCCCC1 [compound 293, (7R)-8-cyclohexyl-5-[6-(dimethylamino)pyridin-3-yl]-7-ethyl-2-[(7-fluoro-1H-indazol-5-yl)amino]-7,8-dihydropteridin-6(5H)-one]
≥ 7.00	CCOc1ccc(N2C(=O)[C@@H](C)N([C@H]3CC[C@H](C)CC3)c3nc(Nc4cnc5[nH]ncc5c4)ncc32)cc1C#N [compound 246, 2-Ethoxy-5-[(7R)-7-methyl-8-(trans-4-methylcyclohexyl)-6-oxo-2-(1H-pyrazolo[3,4-b]pyridin-5-ylamino)-7,8-dihydropteridin-5(6H)-yl]benzonitrile]
≥ 7.00	CO[C@H]1CC[C@H](N2c3nc(Nc4cc(F)c(O)c(F)c4)ncc3N(c3cccc(C#N)c3)C(=O)[C@H]2C)CC1 [compound 232, 3-[(7R)-2-[(3,5-difluoro-4-hydroxyphenyl)amino]-8-(trans-4-methoxycyclohexyl)-7-methyl-6-oxo-7,8-dihydropteridin-5(6H)-yl]benzonitrile]
≥ 7.00	CO[C@H]1CC[C@H](N2c3nc(Nc4cnc5[nH]ncc5c4)ncc3N(c3cccc(C#N)c3)C(=O)[C@H]2C)CC1 [compound 231, 3-[(7R)-8-(trans-4-methoxycyclohexyl)-7-methyl-6-oxo-2-(1H-pyrazolo[3,4-b]pyridin-5-ylamino)-7,8-dihydropteridin-5(6H)-yl]benzonitrile]
≥ 7.00	COc1ccc(N2C(=O)[C@@H](C)N(C3CCCCC3)c3nc(Nc4cnc5[nH]ncc5c4)ncc32)cc1OC [compound 153, (7R)-8-cyclohexyl-5-(3,4-dimethoxyphenyl)-7-methyl-2-(1H-pyrazolo[3,4-B]pyridin-5-ylamino)-7,8-dihydropteridin-6(5H)-one]
≥ 7.00	CC[C@@H]1C(=O)N(c2cccc(C(F)(F)F)c2)c2cnc(Nc3cc(F)c4[nH]ncc4c3)nc2N1C1CCCCC1 [compound 291, (7R)-8-cyclohexyl-7-ethyl-2-[(7-fluoro-1H-indazol-5-yl)amino]-5-[3-(trifluoromethyl)phenyl]-7,8-dihydropteridin-6(5H)-one]
≥ 7.00	CC[C@@H]1C(=O)N(c2cccc(C#N)c2)c2cnc(Nc3cc(F)c4[nH]ncc4c3)nc2N1C1CCCCC1 [compound 287, 3-[(7R)-8-cyclohexyl-7-ethyl-2-[(7-fluoro-1H-indazol-5-yl)amino]-6-oxo-7,8-dihydropteridin-5(6H)-yl]benzonitrile]
≥ 7.00	CC(C)Oc1ccc(N2C(=O)[C@@H](C)N([C@H]3CC[C@H](C)CC3)c3nc(Nc4cnc5[nH]ncc5c4)ncc32)cc1C#N [compound 248, 5-[(7R)-7-methyl-8-(trans-4-methylcyclohexyl)-6-oxo-2-(1H-pyrazolo[3,4-b]pyridin-5-ylamino)-7,8-dihydropteridin-5(6H)-yl]-2-(propan-2-yloxy)benzonitrile]
